The results in this text go back to US9840494B2, “Quinazoline derivative” (Tianjin Hemay Oncology Pharmaceutical Co., Ltd., priority 2013, dated 2017).

By T/C is commonly meant the result in the treated group divided by that in the control group, in per cent. As a reminder, the IC50 is the midpoint of a concentration-inhibition curve. A lower IC50 goes with higher potency. For orientation: bioavailability means the share of a dose that reaches the circulation, judged against a reference dose that is usually intravenous. A low value points to little systemic uptake. As a reminder, the AUC(0-inf) is the area under the concentration-time curve extrapolated to infinity. Higher therefore signals high exposure. The term AUC(0-t) denotes the area under the concentration-time curve up to a stated or last time point. Read a low AUC(0-t) as less exposure. One may read the Cmax as the maximum level reached in the sampled fluid or tissue. What is called Tmax is the time at which the peak concentration occurs.

Series [1] concerns A431 human epidermal carcinoma xenograft. As to the kind of experiment: A431 human epidermal carcinoma xenograft model. The class given is in vivo, nude mice. The following applies: A431 xenograft, 50 mg/kg intragastric once a day for 14 days. The procedure: Tumor cells were cultured in an incubator at 37° C. with 5% CO2 using MEM medium containing 10% inactivated fetal calf serum, 100 U/ml penicillin and 100 µg/ml streptomycin. The tumor cells in logarithmic growth phase were collected, adjusted to an appropriate density and injected subcutaneously into nude mice (0.2 ml per mouse). An xenograft model was established after a tumor was formed in the nude mice and passaged in vivo for more than three generations.
The above-mentioned tumor-bearing mice were sacrificed by cervical dislocation. The tumor was taken out and cut into small tumor pieces (about 2 mm×2 mm×2 mm) under sterile conditions. The small tumor pieces were inoculated subcutaneously into nude mice with a trocar. […] The animals in each group were subjected to intragastric administration once a day for 14 consecutive days. The day of grouping is assigned as day 0.
(§1) Tumor volume is calculated as: volume =0.5×long diameter×short diameter^2. The relative tumor volume (RTV) was calculated based on the measurements as: RTV=Vt/V0, wherein V0 is the tumor volume measured when the animals were grouped to be administrated (i.e., d0), and Vt is the tumor volume when each measurement was taken. Relative tumor proliferation rate T/C was calculated based on relative tumor volume, in which T is the mean value of the relative tumor volume of the treatment group, and C is the mean value of the relative tumor volume of the solvent control group. T/C was calculated as follows: T/C=TRTV/CRTV×100% (TRTV: RTV of the treatment group; CRTV:
RTV of the solvent control group) Inhibition rate (%)=(mean tumor weight of the solvent control group−mean tumor weight of the treatment group)/mean tumor weight of the solvent control group×100%. Percentage of body weight change=Wn/W0×100% (Wn: mean body weight of experimental animals in each group at day n, W0: mean body weight of experimental animals in each group at day 0).
(§2) One-Way ANOVA test was conducted in SPSS13.0, performing statistical analysis between groups.
Background: A xenograft is tissue or cells of one species grown in another, often human tumour cells in immunodeficient mice.

Series [2] has as its system FaDu human head and neck cancer xenograft. Put plainly: FaDu human head and neck cancer xenograft model. Particulars: FaDu xenograft, 50 mg/kg intragastric daily for 14 days. The class given is in vivo, nude mice. The procedure:
Tumor cells were cultured in an incubator at 37° C. with 5% CO2 using MEM medium containing 10% inactivated fetal calf serum, 100 U/ml penicillin and 100 μg/ml streptomycin. The tumor cells in logarithmic growth phase were collected, adjusted to an appropriate density and injected subcutaneously into nude mice (0.2 ml per mouse). An xenograft model was established after tumor was formed in the nude mice and passaged in vivo for more than three generations.
(§3) The above-mentioned tumor-bearing mice were sacrificed by cervical dislocation. The tumor was taken out and cut into small tumor pieces (about 2 mm×2 mm×2 mm) under sterile conditions. The small tumor pieces were inoculated subcutaneously into nude mice on the right shoulder blade with a trocar. […] The animals in each group were subjected to intragastric administration daily for 14 consecutive days. The day of grouping is assigned as day 0.
as §1, with “volume=0.5×long” for “volume =0.5×long”, “CRTV: RTV of the solvent control group) Inhibition rate (%)=(mean tumor weight of the solvent control group−mean tumor weight of the treatment group)/mean tumor weight of the solvent control group×100%. Percentage of body weight change=Wn/W0×100% (Wn: mean body weight of experimental animals in each group at day n, W0: mean body weight of experimental animals in each group at day 0).” for “CRTV:”
as §2

For series [3], the system named is HCC827 human non-small cell lung cancer xenograft. Put plainly: HCC827 human non-small cell lung cancer xenograft model. The class given is in vivo, nude mice. Particulars: HCC827 xenograft, 50 mg/kg intragastric daily for 14 days. As for the experimental part:
Tumor cells were cultured in an incubator at 37° C. with 5% CO2 using MEM medium containing 10% inactivated fetal calf serum, 100 U/ml penicillin and 100 μg/ml streptomycin. The tumor cells in logarithmic growth phase were collected, adjusted to an appropriate density and injected subcutaneously into nude mice (0.2 ml per mouse). An xenograft model was established after a tumor was formed in the nude mice and passaged in vivo for more than three generations.
as §3
as §1, with “volume=0.5×long” for “volume =0.5×long”, “CRTV: RTV of the solvent control group) Inhibition rate (%)=(mean tumor weight of the solvent control group−mean tumor weight of the treatment group)/mean tumor weight of the solvent control group x 100%. Percentage of body weight change=Wn/W0×100% (Wn: mean body weight of experimental animals in each group at day n, W0: mean body weight of experimental animals in each group at day 0).” for “CRTV:”
as §2

A further series concerns the target T1, EGFR (Homo sapiens, UniProt P00533).
T1 construct: purchased Invitrogen Company PV3872
As to the kind of experiment: Inhibitory effect on tyrosine kinase activity of EGFR. The class given is biochemical. Particulars: EGFR 40 ng/ml, ATP 10 μM, 30 min. The procedure:
EGFR: Invitrogen Company, Catalogue No. PV3872
pGT (poly(glutamic acid-tyrosine)): Sigma-Aldrich Company, Catalogue No. P0275
The assay method is briefly described as follows.
3.1.1 At 4° C., 96-well microtiter plate was coated with 0.2 mg/mL pGT (as the substrate of enzyme) dissolved in PBS (phosphate buffer) overnight. Unbound pGT was washed away with a washing solution (0.05% Tween −20 in PBS), and the plate was dried in the air at room temperature for 2 h.
3.1.2 The enzyme reaction was performed in 50 μl reaction system containing 50 mM HEPEs (N-(2-hydroxyethyl)piperazine-N′-2-ethanesulfonic acid), pH 7.5, 0.01% BRIJ-35 (polyoxyethylene lauryl ether), 10 mM MgCl2, 1 mM EGTA (ethylene glycol bis(2-aminoethyl ether)tetraacetic acid), with certain concentrations of ATP (adenosine triphosphate) and kinase, and proceeded for 30 min at room temperature. The phosphate group at the terminal of ATP can be transferred to tyrosine residues of pGT by kinase catalysis so as to phosphorylate the tyrosine residues.
3.1.3 A final concentration of 1% SDS (sodium dodecyl sulfate) was added to terminate the reaction. The phosphorylated tyrosine residues were identified using pY-20. HRP at the end of the antibody enabled TMB to take on color. Then equal amount of 2 N H2SO4 was added to terminate the reaction. OD value, which is positively correlated with the phosphorylation degree of tyrosine residues of pGT, was measured at 450 nm
3.2 The concentrations of the kinase and substrate ATP were determined with reference to the literature “Optimization of a LanthaScreen Kinase assay for EGFR (ErbB1)”(https://tools.lifetechnologies.com/content/sfs/manuals/EGFR_LanthaScreen_actity_Europium.pdf), published by Invitrogen Corporation. The selection criteria for the final concentrations are that the concentration of kinase enabling the yield of the product within the linear range of the detection system and the concentration of ATP approching Km (Michaelis constant) value.
3.3.1 An appropriate amount of a compound was dissolved in DMSO (dimethylsulfoxide) to prepare 2 mM stock solution. Then the stock solution was diluted with DMSO to obtain a working solution with a 50-fold concentration of the highest test concentration, and subjected to a 4-fold gradient dilution to obtain seven concentrations in total.
5 μl 10-fold concentration of ATP dissolved in H2O (the concentration of ATP in EGFR assay is 100 μM, and in Her2 assay is 400 μM) was added to initiate the enzyme reaction followed by reaction at room temperature for 30 min
The mean value of inhibition rate and SD (standard deviation) were determined by duplicate wells. A curve with the concentration of the compound as abscissa and being in logarithmic distribution and the mean value of inhibition rate as ordinate was plotted and fitted using four-parameter logistic function.

The nature of series [4]: Bioavailability assay in rats, Experiment II (dihydrobromide). Particulars: Wistar rats. The class given is in vivo.
Where [5] appears, read: 20 mg/kg tail intravenous injection.
Setting [6] is: both sexes, rat, plasma, po, 20 mg/kg intragastric gavage.
Where [7] appears, read: both sexes, rat, plasma, 20 mg/kg tail intravenous injection.

Marks after values point to notes of the source that are not given here.

On to `C#Cc1cccc(Nc2ncnc3cc(OCCOC)c(OCCOC)cc23)c1` [Tarceva, reference compound], for which the “Tumor Weight (x ± S.D.)” value was 0.281 ± 0.252 g in series [1], 0.650 ± 0.267 g in series [2] and 0.067 ± 0.055 g in series [3]. The “Tumor Inhibitor Rate” value in series [1] (by tumor weight) came out at 62.0%; in series [2] (by tumor weight), 40.6%. Besides, the T/C in series [1] (end of the assay) was 47.3%; in series [2] (end of the assay) it was 59.9%; in series [3] (end of the assay), 5.0%. Further, the “Tumor Volume (x ± S.D.)” value is 498.9 ± 263.4** mm^3 in series [1] (end of the assay), 709.9 ± 274.9** mm^3 in series [2] (end of the assay) and 55.3 ± 46.3*** mm^3 in series [3] (end of the assay).
`COCCOc1cc2ncnc(Nc3ccc(F)c(Cl)c3)c2cc1NC(=O)C=C1CCN(CCOC)CC1` [Compound 10, N-[4-(3-chloro-4-fluorophenylamino)-7-(2-methoxyethoxy)quinazolin-6-yl]-2-[1-(2-methoxyethyl)piperidin-4-ylidene]acetamide dimaleate]: the half-inhibitory concentration (IC50) at EGFR worked out at 300 pM.
As to `COCCOc1cc2ncnc(Nc3ccc(F)c(Cl)c3)c2cc1NC(=O)C=C1CCN(CCOC)CC1` [Compound 11, N-[4-(3-chloro-4-fluorophenylamino)-7-(2-methoxyethoxy)quinazolin-6yl]-2-[1-(2-methoxyethyl)piperidin-4-ylidene]acetamide di(p-toluenesulfonate)], the IC50 against EGFR worked out at 400 pM.
`COCCOc1cc2ncnc(Nc3ccc(F)c(Cl)c3)c2cc1NC(=O)C=C1CCN(CCOC)CC1` [Compound 6, N-[4-(3-chloro-4-fluorophenylamino)-7-(2-methoxyethoxy)quinazolin-6-yl]-2-[1-(2-methoxyethyl)piperidin-4-ylidene]acetamide dinitrate]: the IC50 against EGFR came to 600 pM.
Still for that read-out and setting: the same measure for `COCCOc1cc2ncnc(Nc3ccc(F)c(Cl)c3)c2cc1NC(=O)C=C1CCN(CCOC)CC1` [Compound 8, N-[4-(3-chloro-4-fluorophenylamino)-7-(2-methoxyethoxy)quinazolin-6-yl]-2-[1-(2-methoxyethyl)piperidin-4-ylidene]acetamide diphenylsulfonate]: 800 pM.
As for `Br.Br.COCCOc1cc2ncnc(Nc3ccc(F)c(Cl)c3)c2cc1NC(=O)C=C1CCN(CCOC)CC1` [Example 5, N-[4-(3-chloro-4-fluorophenylamino)-7-(2-methoxyethoxy)quinazolin-6-yl]-2-[1-(2-methoxyethyl)piperidin-4-ylidene]acetamide dihydrobromide], in series [4] (20 mg/kg intragastric gavage), the CLz/F came out at 66.48 mL/min/kg and the t½z was 5.564 h. In series [4] (setting [5]), this compound showed a CLz of 25.8 mL/min/kg and a t½z of 5.514 h. In series [4] (both sexes, rat, plasma, oral, 20 mg/kg ig vs 20 mg/kg iv), this compound had a bioavailability of 42.8%. Further, in series [4] (setting [6]), the AUC(0-inf) is 5550 ng·h/mL, the area under the curve AUC(0-t) stood at 5240 ng·h/mL, the Cmax is 368 ng/mL and the Tmax was 6 h. Also, the Vd/F in series [4] (both sexes, rat, plasma, po, 20 mg/kg intragastric gavage, read-out: Vz/F) came to 30.1 L/kg. In series [4] (setting [7]), the AUC(0-inf) was determined as 13000 ng·h/mL, the area under the curve AUC(0-t) came out at 12700 ng·h/mL, the maximum concentration (Cmax) came out at 3240 ng/mL and the Tmax is 0.083 h. For the same compound, the Vd in series [4] (both sexes, rat, plasma, 20 mg/kg tail intravenous injection, read-out: Vz) was determined as 12.2 L/kg.
At EGFR, `COCCOc1cc2ncnc(Nc3ccc(F)c(Cl)c3)c2cc1NC(=O)C=C1CCN(CCOC)CC1` [Compound 9, N-[4-(3-chloro-4-fluorophenylamino)-7-(2-methoxyethoxy)quinazolin-6-yl]-2-[1-(2-methoxyethyl)piperidin-4-ylidene]acetamide difumarate] showed a half-maximal inhibitory concentration (IC50) of 500 pM.
On to “N-[4-(3-chloro-4-fluorophenylamino)-7-(2-methoxyethoxy)quinazolin-6yl]-2-[piperidin-4-ylidene]acetamide disulfate [Compound 5]”, for which the IC50 against EGFR was determined as 300 pM.
